For 24 molecules, GI50 and IC50 results are on record in US8846704B2, “Thiopyrimidine-based compounds and uses thereof” (YM Biosciences Austraila Pty Ltd, priority 2007, dated 2014).

The structures appear in SMILES notation.

For assay [1], the target named is T1, BaF3 TELJAK2 cells (BafT_J2) (Homo sapiens, UniProt O60674).
T1 construct: fused on or other part: TEL (ETV6) N-terminal part, coding nucleotides 1-487, serves as the oligomerising partner; It is fused through a Sal I site to the JAK2 kinase domain and expressed from pTRE2 in BaF3 cells bearing pTET-off; P41212 (Transcription factor ETV6)
T1 sequence (O60674 whole entry, change not shown, the tested form may be a part): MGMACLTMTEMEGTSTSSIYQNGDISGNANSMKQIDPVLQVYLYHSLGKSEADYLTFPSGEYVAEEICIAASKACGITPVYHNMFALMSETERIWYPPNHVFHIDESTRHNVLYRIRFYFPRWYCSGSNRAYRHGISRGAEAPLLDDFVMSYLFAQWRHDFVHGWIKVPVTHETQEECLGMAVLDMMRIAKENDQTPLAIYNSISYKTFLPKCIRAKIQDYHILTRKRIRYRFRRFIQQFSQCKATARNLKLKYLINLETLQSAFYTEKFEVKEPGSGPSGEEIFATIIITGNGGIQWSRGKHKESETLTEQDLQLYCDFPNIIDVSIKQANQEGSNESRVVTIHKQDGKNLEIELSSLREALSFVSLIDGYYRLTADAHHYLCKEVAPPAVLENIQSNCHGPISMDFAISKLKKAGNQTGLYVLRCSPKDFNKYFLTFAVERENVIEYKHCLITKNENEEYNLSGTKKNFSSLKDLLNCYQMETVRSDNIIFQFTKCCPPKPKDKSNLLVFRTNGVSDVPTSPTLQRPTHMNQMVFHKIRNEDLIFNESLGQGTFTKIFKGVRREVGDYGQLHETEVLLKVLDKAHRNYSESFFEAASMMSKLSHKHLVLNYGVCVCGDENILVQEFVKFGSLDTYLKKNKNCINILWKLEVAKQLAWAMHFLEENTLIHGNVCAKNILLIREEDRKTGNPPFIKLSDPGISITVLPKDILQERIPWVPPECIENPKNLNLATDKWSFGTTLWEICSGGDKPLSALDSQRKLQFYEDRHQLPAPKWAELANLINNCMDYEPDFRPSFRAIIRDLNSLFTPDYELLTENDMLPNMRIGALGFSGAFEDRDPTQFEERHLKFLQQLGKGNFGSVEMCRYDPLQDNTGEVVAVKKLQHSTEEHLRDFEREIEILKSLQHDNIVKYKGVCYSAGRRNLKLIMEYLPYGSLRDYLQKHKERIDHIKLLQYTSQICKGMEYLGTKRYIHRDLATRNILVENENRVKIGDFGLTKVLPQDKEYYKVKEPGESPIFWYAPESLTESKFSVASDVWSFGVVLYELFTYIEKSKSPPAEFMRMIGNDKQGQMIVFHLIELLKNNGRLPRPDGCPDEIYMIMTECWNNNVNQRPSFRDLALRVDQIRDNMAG
In words: Cellular screening, BaF3 TEL:JAK2 cells, Alamar Blue. In kind it is cell-based. Conditions: 40 hr, read-out: BafT_J2 IC50_nM. The gist of the method:
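Tet-off BaF3 cells carrying a TEL (nt 1-487)–JAK2 kinase-domain fusion, grown factor-independently in DMEM with 10% Tet-approved FBS without WEHI 3B medium. Compounds were diluted to 20 μM in screening plates, and cells (50,000–200,000 cell/mL at 1.1×) were incubated 40 hr at 37 °C, 5% CO2. Alamar Blue was then added for 4-6 hours; read at 544 nm.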

Another assay deals with CTLL2. The assay can be described thus: Cellular screening, CTLL2 cells, Alamar Blue. In kind it is cell-based. Particulars: Mus musculus, CTLL-2, read-out: CTLL2 IC50_nM. An outline of the steps: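 Viability is read with Alamar Blue at 544 nm, the dye added for the final 4-6 hours. Compounds were incubated for 40 hr with CTLL2 cells taken from late-log-phase culture, at 37° C in 5% CO2.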

The next assay has as its target T2, human JAK2 (Homo sapiens, UniProt O60674).
T2 construct: The kinase domain of human JAK2 was amplified; GST (N); made in house; host or cells: Sf9 insect cells (baculovirus)
In words: Alphascreen tyrosine kinase enzyme assay, JAK2 kinase domain. Particulars: read-out: JAK2 IC50_nM. In kind it is biochemical. An outline of the steps: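 JAK2 kinase domain expressed in baculovirus/Sf9 and glutathione-affinity purified. Compounds (final […]) pre-incubated 20 min with enzyme in 10 mM HEPES pH 7.5, MgCl2, NaCl, vanadate, 0.1% Tween 20.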

T2 sequence (O60674 849-1124 limits assumed): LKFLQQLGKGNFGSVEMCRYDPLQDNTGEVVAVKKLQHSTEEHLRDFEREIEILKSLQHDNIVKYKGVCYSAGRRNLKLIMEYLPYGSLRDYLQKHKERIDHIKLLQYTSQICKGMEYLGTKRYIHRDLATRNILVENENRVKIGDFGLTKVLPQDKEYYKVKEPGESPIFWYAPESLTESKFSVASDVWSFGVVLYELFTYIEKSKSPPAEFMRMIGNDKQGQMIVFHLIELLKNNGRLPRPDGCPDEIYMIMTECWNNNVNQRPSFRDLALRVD

In the case of `C=CC(=O)Nc1cccc(Nc2nccc(Sc3cccc(OC)c3)n2)c1` [Compound 31, N-(3-(4-(3-methoxyphenylthio)pyrimidin-2-ylao)phenyl)acrylamide], the GI50 in assay [1] was less than 20 µM. Further, the figures for the IC50 in the assay on CTLL2 and on human JAK2 were less than 1 µM and more than 1 µM, respectively.
As for `COc1cc(Nc2nccc(Sc3ccc(NCC#N)cc3)n2)cc(OC)c1OC` [Compound 52, 2-(4-(2-(3,4,5-trimethoxyphenylao)pyrimidin-4-ylthio)phenylao)acetonitrile], the GI50 in assay [1] was less than 5 µM. Besides, at human JAK2, the IC50 is more than 1 µM.
On to `C=CC(=O)Nc1ccc(Sc2ccnc(Nc3ccc(OC)cc3)n2)cc1` [Compound 74, N-(4-(2-(4-methoxyphenylao)pyrimidin-4-ylthio)phenyl)acrylamide], for which, in assay [1], the GI50 is more than 20 µM. Further, the IC50 with CTLL2 is less than 5 µM; at human JAK2, more than 1 µM.
Taken in the same sequence, the figures for `CC(=O)Nc1ccc(Sc2ccnc(Nc3ccc(N4CCC(N5CCCC5)CC4)cc3)n2)cc1` [Compound 86, N-(4-(2-(4-(4-(pyrrolidin-1-yl)piperidin-1-yl)phenylao)pyrimidin-4-ylthio)phenyl)acetamide] were less than 20 µM, less than 5 µM and more than 1 µM.
As for `C=CC(=O)Nc1ccc(Sc2ccnc(Nc3ccc(N4CCC(N5CCCC5)CC4)cc3)n2)cc1` [Compound 87, N-(4-(2-(4-(4-(pyrrolidin-1-yl)piperidin-1-yl)phenylao)pyrimidin-4-ylthio)phenyl)acrylamide], the GI50 in assay [1] was less than 5 µM. The IC50 in the assay with CTLL2 is less than 1 µM; at human JAK2, more than 1 µM.
The matching figures for `N#CCC(=O)Nc1ccc(Sc2ccnc(Nc3ccc(N4CCC(N5CCCC5)CC4)cc3)n2)cc1` [Compound 88, 2-cyano-N-(4-(2-(4-(4-(pyrrolidin-1-yl)piperidin-1-yl)phenylao)pyrimidin-4-ylthio)phenyl)acetamide]: less than 5 µM, less than 20 µM and more than 1 µM.
For `C=CC(=O)N(C)c1ccc(Sc2ccnc(Nc3ccc(N4CCOCC4)cc3)n2)cc1` [Compound 91, N-methyl-N-(4-(2-(4-morpholinophenylao)pyrimidin-4-ylthio)phenyl)acrylamide], the GI50 in assay [1] is less than 20 µM. Also, the IC50 with CTLL2 was less than 1 µM; at human JAK2, more than 1 µM.
Regarding `C=CC(=O)Nc1ccc(Sc2ccnc(Nc3ccc(OC)c(O)c3)n2)cc1` [Compound 97], in assay [1], the GI50 was less than 5 µM. In addition, the IC50 in the assay on CTLL2 was less than 1 µM; at human JAK2 it was more than 1 µM.
For `C=CC(=O)Nc1ccc(Sc2ccnc(Nc3ccc(N4CCS(=O)(=O)CC4)cc3)n2)cc1` [Compound 99, N-{4-[(2-{[4-(1,1-dioxo-1λ^6,4-thiomorpholin-4-yl)phenyl]ao}pyrimidin-4-yl)sulfanyl]phenyl}prop-2-enamide], the GI50 in assay [1] was more than 20 µM. In addition, the IC50 on human JAK2 was more than 1 µM.
As for `COc1ccc(Nc2nccc(Sc3ccc(NC(=O)CC#N)cc3)n2)cc1OC` [Compound 101, 2-cyano-N-(4-(2-(3,4-dimethoxyphenylao)pyrimidin-4-ylthio)phenyl)acetamide], in assay [1], the GI50 was less than 5 µM. Further, the IC50 was less than 20 µM with CTLL2 and more than 1 µM at human JAK2.
Taken in the same sequence, the figures for `CC#CC(=O)Nc1ccc(Sc2ccnc(Nc3ccc(N4CCOCC4)cc3)n2)cc1` [Compound 104, N-(4-(2-(4-morpholinophenylao)pyrimidin-4-ylthio)phenyl)but-2-ynamide] were more than 20 µM, less than 5 µM and more than 1 µM.
On to `C=CC(=O)Nc1ccc(Sc2ccnc(Nc3cccc(OC)c3)n2)cc1` [Compound 105, N-(4-(2-(3-methoxyphenylao)pyrimidin-4-ylthio)phenyl)acrylamide], for which the GI50 in assay [1] was less than 20 µM. For the same molecule, the IC50 in the assay with CTLL2 is less than 20 µM; at human JAK2, more than 1 µM.
For `COc1cc(Sc2ccnc(Nc3ccc(N4CCOCC4)cc3)n2)ccc1N` [Compound 117, 4-(4-ao-3-methoxyphenylthio)-N-(4-morpholinophenyl)pyrimidin-2-ae], in assay [1], the GI50 is less than 20 µM. The IC50 with CTLL2 is less than 20 µM; on human JAK2, more than 1 µM.
With `C=CC(=O)Nc1ccc(Sc2ccnc(Nc3cccc(C#N)c3)n2)cc1` [Compound 118, N-(4-(2-(3-cyanophenylao)pyrimidin-4-ylthio)phenyl)acrylamide], the GI50 in assay [1] was less than 5 µM. Also, the IC50 in the assay on CTLL2 was more than 20 µM; at human JAK2, more than 1 µM.
Taken in the same sequence, the figures for `C=CC(=O)Nc1cccc(Sc2ccnc(Nc3ccc(OC)cc3)n2)c1` [Compound 120, N-(3-(2-(4-methoxyphenylao)pyrimidin-4-ylthio)phenyl)acrylamide] were less than 20 µM, less than 5 µM and more than 1 µM.
For the molecule `C=CC(=O)Nc1ccc(Sc2nc(Nc3ccc(N4CCOCC4)cc3)ncc2C)cc1` [Compound 124, N-(4-(5-methyl-2-(4-morpholinophenylao)pyrimidin-4-ylthio)phenyl)acrylamide], in assay [1], the GI50 is more than 20 µM. The IC50 is less than 1 µM with CTLL2 and more than 1 µM on human JAK2.
The matching figures for `CC#CC(=O)Nc1ccc(Sc2nc(Nc3ccc(N4CCOCC4)cc3)ncc2C)cc1` [Compound 125, N-(4-(5-methyl-2-(4-morpholinophenylao)pyrimidin-4-ylthio)phenyl)but-2-ynamide]: less than 20 µM, less than 5 µM and more than 1 µM.
Taken in the same sequence, the figures for `Cc1cnc(Nc2ccc(N3CCOCC3)cc2)nc1Sc1ccc(N)cc1` [Compound 126, 4-(4-aophenylthio)-5-methyl-N-(4-morpholinophenyl)pyrimidin-2-ae] were less than 5 µM, less than 5 µM and less than 0.5 µM.
Taken in the same sequence, the figures for `c1cn(Cc2ccc(Sc3ccnc(Nc4ccc(N5CCOCC5)cc4)n3)cc2)cn1` [Compound 127, 4-(4-((1H-imidazol-1-yl)methyl)phenylthio)-N-(4-morpholinophenyl)pyrimidin-2-ae] were less than 20 µM, less than 20 µM and less than 1 µM.
In the case of `C=CC(=O)Nc1ccc(Sc2ccnc(Nc3ccc(C#N)cc3)n2)cc1` [Compound 131, N-(4-(2-(4-cyanophenylao)pyrimidin-4-ylthio)phenyl)acrylamide], the GI50 in assay [1] is less than 20 µM. For the same molecule, the figures for the IC50 in the assay with CTLL2 and at human JAK2 were less than 20 µM and more than 1 µM, respectively.
For `CC(=O)Nc1ccc(Sc2nc(Nc3ccc(N4CCOCC4)cc3)ncc2C)cc1` [Compound 135, N-(4-(5-methyl-2-(4-morpholinophenylao)pyrimidin-4-ylthio)phenyl)acetamide], in assay [1], the GI50 was less than 20 µM. Besides, at human JAK2, the IC50 was more than 1 µM.
Taken in the same sequence, the figures for `C=CC(=O)Nc1ccc(Sc2nc(Nc3ccccc3O)ncc2C)cc1` [Compound 287, N-(4-(2-(2-hydroxyphenylao)-5-methylpyrimidin-4-ylthio)phenyl)acrylamide] were more than 20 µM and more than 1 µM.
Take `C=CC(=O)Nc1ccc(Sc2ccnc(Nc3cccc(Cl)c3)n2)cc1` [Compound 348, N-(4-(2-(3-chlorophenylao)pyrimidin-4-ylthio)phenyl)acrylamide]: in assay [1], the GI50 was less than 5 µM. On human JAK2, the IC50 was more than 1 µM.
The matching figures for `C=CC(=O)Nc1ccc(Sc2ccnc(Nc3ccc(C(=O)OC)cc3)n2)cc1` [Compound 357, methyl 4-(4-(4-acrylamidophenylthio)pyrimidin-2-ylao)benzoate]: less than 5 µM and more than 1 µM.
